Laboratory results from ChEMBL document CHEMBL4033647, “Novel coumarin- and quinolinone-based polycycles as cell division cycle 25-A and -C phosphatases inhibitors induce proliferation arrest and apoptosis in cancer cells” (Eur J Med Chem, 2017).
Calls of active or inactive are those of the source. The rule behind the calls is not given here.

Columns and labels:
PC-3 = assay: Cytotoxicity against human PC3 cells assessed as reduction in cell viability after 72 hrs by MTT assay; format: functional, cell-based; conditions: PC-3, 72 h
A-431 [1] = assay: Effect on CDC25C splice variant protein expression in human A431 cell extract at 50 uM after 24 hrs by Western blot analysis; format: functional, cell-based
A-431 [2] = assay: Cell cycle arrest in human A431 cells assessed as accumulation at G1 phase at 50 uM after 24 hrs by propidium iodide staining based flow cytometric analysis (reference value: 53.04%); format: functional
[3] = target: T1, M-phase inducer phosphatase 3 (Homo sapiens) (UniProt P30307); conditions: 10 to 50 uM
T1 sequence (whole entry): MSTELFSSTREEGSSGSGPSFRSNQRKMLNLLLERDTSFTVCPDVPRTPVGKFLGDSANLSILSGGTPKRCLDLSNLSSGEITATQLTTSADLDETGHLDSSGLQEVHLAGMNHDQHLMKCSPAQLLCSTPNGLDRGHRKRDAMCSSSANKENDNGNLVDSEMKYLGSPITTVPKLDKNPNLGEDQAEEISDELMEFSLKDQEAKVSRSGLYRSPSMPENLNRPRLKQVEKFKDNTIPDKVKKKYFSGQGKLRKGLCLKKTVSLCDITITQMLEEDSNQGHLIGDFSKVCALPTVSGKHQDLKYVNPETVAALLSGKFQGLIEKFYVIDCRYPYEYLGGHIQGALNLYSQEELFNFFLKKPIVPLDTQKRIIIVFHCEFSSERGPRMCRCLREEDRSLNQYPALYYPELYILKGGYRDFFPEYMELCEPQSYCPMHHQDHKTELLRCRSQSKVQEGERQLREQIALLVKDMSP
Description: Inhibition of CDC25C in human A431 cells assessed as increase in CDK-mediated phosphorylation of histone H3 at Ser10 residues at 10 to 50 uM after 24 hrs by Western blot analysis

Homo sapiens = organism: Homo sapiens; assay: Selectivity ratio of IC50 for recombinant human full length GST-tagged CDC25A expressed in Escherichia coli BL21-DE3 pLysS to IC50 for recombinant human full length GST-tagged CDC25C expressed in Escherichia coli BL21-DE3 pLysS
[4] = Cytotoxicity against human U373n cells assessed as reduction in cell viability after 72 hrs by MTT assay; format: functional, cell-based
A-431 [5] = assay: Cell cycle arrest in human A431 cells assessed as accumulation at subG1 phase at 10 uM after 24 hrs by propidium iodide staining based flow cytometric analysis (reference value: 3.40%); format: functional
A-431 [6] = assay: Decrease in CDC25C protein expression level in human A431 cell extract at 50 uM after 24 hrs by Western blot analysis; format: functional, cell-based
A-431 [7] = assay: Cell cycle arrest in human A431 cells assessed as accumulation at subG1 phase at 50 uM after 24 hrs by propidium iodide staining based flow cytometric analysis (reference value: 3.40%); format: functional
A-431 [8] = assay: Cytotoxicity against human A431 cells assessed as reduction in cell viability after 24 hrs by MTT assay; format: functional, cell-based; conditions: A-431, 24 h
A549 = assay: Cytotoxicity against human A549 cells assessed as reduction in cell viability after 72 hrs by MTT assay; format: functional, cell-based; conditions: A549, 72 h
A-431 [9] = assay: Cell cycle arrest in human A431 cells assessed as accumulation at G1 phase at 10 uM after 24 hrs by propidium iodide staining based flow cytometric analysis (reference value: 53.04%); format: functional
A-431 [10] = assay: Cell cycle arrest in human A431 cells assessed as accumulation at S phase at 50 uM after 24 hrs by propidium iodide staining based flow cytometric analysis (reference value: 17.33%); format: functional
A-431 [11] = assay: Cell cycle arrest in human A431 cells assessed as accumulation at G2/M phase at 50 uM after 24 hrs by propidium iodide staining based flow cytometric analysis (reference value: 26.23%); format: functional
A-431 [12] = assay: Cell cycle arrest in human A431 cells assessed as accumulation at G2/M phase at 10 uM after 24 hrs by propidium iodide staining based flow cytometric analysis (reference value: 26.23%); format: functional
MCF7 = assay: Cytotoxicity against human MCF7 cells assessed as reduction in cell viability after 72 hrs by MTT assay; format: functional, cell-based; conditions: MCF7, 72 h
SK-MEL-28 = assay: Cytotoxicity against human SK-MEL-28 cells assessed as reduction in cell viability after 72 hrs by MTT assay; format: functional, cell-based; conditions: SK-MEL-28, 72 h
[13] = target: T2, M-phase inducer phosphatase 1 (Homo sapiens, UniProt P30304); assay: Inhibition of recombinant human full length GST-tagged CDC25A expressed in Escherichia coli BL21-DE3 pLysS using 3-O-methylfluorescein phosphate as substrate after 2 hrs by fluorimetric analysis
T2 sequence (P30304 whole entry): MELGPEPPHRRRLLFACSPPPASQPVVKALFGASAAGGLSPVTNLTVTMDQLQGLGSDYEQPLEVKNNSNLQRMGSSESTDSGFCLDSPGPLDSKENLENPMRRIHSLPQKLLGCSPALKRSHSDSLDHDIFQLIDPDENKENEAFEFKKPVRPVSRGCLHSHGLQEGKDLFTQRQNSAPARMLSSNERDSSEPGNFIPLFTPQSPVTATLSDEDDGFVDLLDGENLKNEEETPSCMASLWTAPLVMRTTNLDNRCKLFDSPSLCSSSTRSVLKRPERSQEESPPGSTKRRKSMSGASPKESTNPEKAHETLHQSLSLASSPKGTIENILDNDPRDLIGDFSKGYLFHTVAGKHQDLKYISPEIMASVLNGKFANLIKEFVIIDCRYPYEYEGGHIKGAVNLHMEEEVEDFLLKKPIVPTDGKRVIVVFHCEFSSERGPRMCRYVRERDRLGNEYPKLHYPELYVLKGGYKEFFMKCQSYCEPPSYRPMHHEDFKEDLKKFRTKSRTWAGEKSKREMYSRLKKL

[14] = target: T3, M-phase inducer phosphatase 3 (Homo sapiens, UniProt P30307); assay: Inhibition of recombinant human full length GST-tagged CDC25C expressed in Escherichia coli BL21-DE3 pLysS using 3-O-methylfluorescein phosphate as substrate after 2 hrs by fluorimetric analysis
T3 sequence (P30307 whole entry): T1 sequence (whole entry)

A-431 [15] = assay: Induction of apoptosis in human A431 cells assessed as caspase-3 cleavage at 10 to 50 uM after 24 hrs by Western blot analysis; format: functional, cell-based
Hs 683 = assay: Cytotoxicity against human Hs683 cells assessed as reduction in cell viability after 72 hrs by MTT assay; format: functional, cell-based; conditions: Hs 683, 72 h
A-431 [16] = assay: Cell cycle arrest in human A431 cells assessed as accumulation at S phase at 10 uM after 24 hrs by propidium iodide staining based flow cytometric analysis (reference value: 17.33%); format: functional
A-431 [17] = assay: Induction of apoptosis in human A431 cells assessed as PARP cleavage at 10 uM after 24 hrs by Western blot analysis; format: functional, cell-based
A-431 [18] = assay: Induction of apoptosis in human A431 cells assessed as caspase-3 cleavage at 10 uM after 24 hrs by Western blot analysis; format: functional, cell-based
[19] = target: T1, M-phase inducer phosphatase 3 (Homo sapiens); assay: Inhibition of CDC25C in human A431 cells assessed as increase in phosphorylation of CDK1 at Thr14/Tyr15 residues at 50 uM after 24 hrs by Western blot analysis; format: cell-based
A-431 [20] = assay: Cytotoxicity against human A431 cells assessed as reduction in cell viability at 10 uM after 24 hrs by MTT assay; format: functional
[21] = target: T1, M-phase inducer phosphatase 3 (Homo sapiens); assay: Inhibition of CDC25C in human A431 cells assessed as increase in CDK-mediated phosphorylation of histone H3 at Ser10 residues at 10 uM after 24 hrs by Western blot analysis; format: cell-based
[22] = Potency index, ratio of NSC95397 IC50 to compound IC50 against human U373n cells; format: functional
A-431 [23] = assay: Cell cycle arrest in human A431 cells after 24 hrs by propidium iodide staining based flow cytometric analysis; format: functional
A-431 [24] = assay: Cytotoxicity against human A431 cells assessed as cell viability at 10 uM after 48 hrs by MTT assay; format: functional; conditions: A-431, 48 h, read-out: Activity
[25] = target: T1, M-phase inducer phosphatase 3 (Homo sapiens); assay: Inhibition of CDC25C in human A431 cells assessed as decrease in CDK-mediated phosphorylation of histone H3 at Ser10 residues at 50 uM after 24 hrs by Western blot analysis; format: cell-based
A-431 [26] = assay: Growth inhibition of human A431 cells at 10 uM by trypan blue dye based assay; format: functional, cell-based; conditions: TDE = time-dependent effect
A-431 [27] = assay: Induction of apoptosis in human A431 cells assessed as PARP cleavage at 50 uM after 24 hrs by Western blot analysis; format: functional, cell-based
[28] = target: T4, M-phase inducer phosphatase 2 (Homo sapiens, UniProt P30305); assay: Inhibition of recombinant human GST-tagged truncated CDC25B expressed in bacterial expression system using 3-O-methylfluorescein phosphate as substrate after 2 hrs by fluorimetric analysis
T4 sequence (P30305 whole entry): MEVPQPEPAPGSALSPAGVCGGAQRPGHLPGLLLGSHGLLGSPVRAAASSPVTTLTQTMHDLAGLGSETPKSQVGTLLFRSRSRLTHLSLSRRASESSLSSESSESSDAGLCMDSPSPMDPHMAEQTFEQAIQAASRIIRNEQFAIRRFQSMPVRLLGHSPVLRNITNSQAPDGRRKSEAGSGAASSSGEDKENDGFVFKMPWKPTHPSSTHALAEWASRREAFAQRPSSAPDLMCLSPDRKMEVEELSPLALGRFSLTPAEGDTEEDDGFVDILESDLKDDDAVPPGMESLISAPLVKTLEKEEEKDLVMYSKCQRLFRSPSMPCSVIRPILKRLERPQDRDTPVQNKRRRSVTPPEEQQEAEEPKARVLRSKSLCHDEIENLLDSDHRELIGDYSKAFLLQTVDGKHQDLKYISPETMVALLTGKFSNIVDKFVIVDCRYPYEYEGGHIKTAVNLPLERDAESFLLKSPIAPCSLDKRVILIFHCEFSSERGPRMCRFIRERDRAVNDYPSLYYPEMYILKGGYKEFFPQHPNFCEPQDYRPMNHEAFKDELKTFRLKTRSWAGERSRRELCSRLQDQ

A-431 [29] = assay: Induction of apoptosis in human A431 cells assessed as caspase-3 cleavage at 50 uM after 24 hrs by Western blot analysis; format: functional, cell-based

| inhibition [3] | IC50 [13] [µM] | IC50 [14] [µM] | SMILES | IC50 (PC-3) [µM] | Activity (A-431 [1]) | Activity (A-431 [2]) [%] | IC50 [4] [µM] | Activity (A-431 [5]) [%] | Activity (A-431 [6]) | Activity (A-431 [7]) [%] | IC50 (A-431 [8]) [µM] | IC50 (A549) [µM] | Activity (A-431 [9]) [%] | Activity (A-431 [10]) [%] | Activity (A-431 [11]) [%] | Activity (A-431 [12]) [%] | IC50 (MCF7) [µM] | IC50 (SK-MEL-28) [µM] | IC50 (Hs 683) [µM] | Activity (A-431 [16]) [%] | also measured |
| --- | --- | --- | --- | --- | --- | --- | --- | --- | --- | --- | --- | --- | --- | --- | --- | --- | --- | --- | --- | --- | --- |
| Active | 7.73 | 3.64 | O=C1C=CC(=O)c2c1ccc1c2c(=O)[nH]c2ccccc21 | 0.9 | Active | 53.93 | 2.7 | 6.26 | Active | 12.81 | 8.2 | 1.8 | 57.01 | 6.98 | 26.28 | 24.83 | 0.9 | 1.5 | 2.8 | 11.9 | Ratio IC50 (Homo sapiens): 2; Activity (A-431 [15]): inactive |
|  | 4.33 | 5.72 | O=C1C=CC(=O)c2c1ccc1c2c(=O)[nH]c2ccc(Cl)cc21 | 0.3 | Active | 31.53 | 0.1 | 15.46 | Active | 33.63 | 3.13 | 0.3 | 44.5 | 7.07 | 27.78 | 26.65 | 1.2 | 0.3 | 0.2 | 13.39 | Activity (A-431 [17]): Active; Activity (A-431 [18]): Active; inhibition [19]: inactive; Activity (A-431 [20]): >60%; inhibition [21]: Active; Ratio IC50 [22]: 18.5; Activity (A-431 [23]): Dose-dependent effect; viability at 10 µM (A-431 [24]): 10%; inhibition [25]: inactive; growth inhibition (GI) (A-431 [26]): Tde |
|  | 1.61 | 0.77 | O=C1C=CC(=O)c2c1ccc1c2c(=O)oc2cc(Cl)ccc21 | 4.4 | inactive | 53.78 | 3.7 | 3.6 | inactive | 4.07 | 29.2 | 3.2 | 48.91 | 16.24 | 25.91 | 28.92 | 2.8 | 7.8 | 1.2 | 18.57 | Activity (A-431 [27]): inactive; Activity (A-431 [15]): inactive |
| Active | 5.8 | 2.3 | O=C1C=CC(=O)c2c1ccc1c2c(=O)oc2ccccc21 | 32 | Active | 42.38 | 18 | 6.85 | Active | 16.51 | 16 | 26 | 45.05 | 11.39 | 29.72 | 29.39 | 16 | 29 | 20 | 18.71 | IC50 [28]: 14.4 µM; Activity (A-431 [29]): Active; inhibition [19]: Active |
